The source of these data is patent publication US20180353512A1, “COMBINATION THERAPIES FOR TREATING B-CELL MALIGNANCIES” (GILEAD SCIENCES, INC., priority 2015, published 2018).

One assay deals with pBTK (Y223). The assay can be described thus: TMD-8 Western Blots. Format: cell-based. As to conditions: for pBTK (Y223), Western Blot: TMD-8. As for the experimental part:
(§1) Western Blot samples were prepared by lysing 10^6 cells for 30 minutes in 150 μL ice-cold lysis buffer. Protease Inhibitor Cocktail (Roche Diagnostics Corp), and phosphatase inhibitor sets 1 and 2 (EMD Millipore) were also added to the lysis buffer (Cell Signaling Technology). Cells were centrifuged at 12.5 g for 10 minutes at 4° C.; supernatant was collected and transferred to new tube. Sample buffer was added to each lysate, and then boiled at 99° C. for 5 minutes. Protein was loaded into an SDS-PAGE gel and run for 2 h at 125V. After electrophoresis, gel was transferred to Immobilon-F membrane using the X Cell Blot. The membrane was then blocked for 1 h at room temperature in blocking buffer and incubated overnight with primary antibodies diluted in a blocking buffer. The following day, the membranes were washed 3× (5 min each) with TBST; secondary antibodies were added and membrane was incubated for 45 minutes at room temperature, followed by 3×TBST (5 min each). Blots were read using Licor Imager. Primary antibodies included p-AKT (S473), p-BTK (Y223), BTK, p-ERK (T202/Y204), ERK, and actin (Cell Signaling Technologies), and secondary antibodies included IRDye-conjugated anti-mouse and anti-rabbit antibodies; LI-COR. Band intensity was measured using LI-COR imager and LI-COR Odyssey software.
For orientation: A western blot detects proteins with antibodies after separation by electrophoresis.

Another assay has as its system pErk1/2 (T202/Y204). Put plainly: TMD-8 Western Blots. Format: cell-based. As to conditions: for pErk1/2 (T202/Y204), Western Blot: TMD-8. As for the experimental part:
as §1

The subject of another assay is p-BTK (Y223). The assay can be described thus: Western Blot of TMD8 xenograft tumor samples. As to conditions: Compound B 10 mg/kg; normalized to total BTK. Format: in vivo, mice. The procedure: (§2) Tumor samples obtained from the study were lysed and Western Blot was performed on the samples to determine the level of BTK and S6 phosphorylation, a downstream effector of PI3K signaling. Western Blots were performed according to the Western Blot procedure described in Example 3B above, using antibodies against p-S6 (S235/236), p-BTK (Y223), BTK and actin. Protein levels were determined using Peggy Sue (ProteinSimple) automated Western Blot system. Normalized AUC were determined for each of the treatment groups: p-BTK (Y223) was normalized to total BTK protein, and p-S6 (S235/236) was normalized to actin.

For another assay, the system named is p-S6 (S235/236). Put plainly: Western Blot of TMD8 xenograft tumor samples. Format: in vivo, mice. The conditions noted are these: single agent; PI3Kδ inhibitor 5 mg/kg, Compound B 10 mg/kg. As for the experimental part:
as §2

A further assay concerns p-AKT S473. Put plainly: Western Blot / Peggy Sue in TMD8^R cells (Example 7). Format: cell-based. As to conditions: idelalisib 420 nM, Compound B 320 nM. As for the experimental part:
(§3) Idelalisib-resistant (TMD8^R) cell line and passage-matched Idelalisib-sensitive (TMD8^S) cell line were generated according to the procedure described in Example 5 above. To characterize the resistant cells, cell viability assays, RNASeq of multidrug resistance (MDR) family of ABC transporter genes (N=33), apoptosis assays, and phosphoprotein analysis were performed. Cell viability was measured using CellTiter-Glo, as described in Example 1A above. Western blot and protein level analysis were performed after treatment with 420 nM idelalisib, 320 nM Compound B and combination thereof, using Peggy Sue (ProteinSimple) automated Western Blot system. Protein concentration (pg/μL) was quantitated using recombinant protein standards. Normalized AUC were determined for each of the treatment groups, normalized to actin. Apoptosis was assessed by propidium iodide and Annexin V/FITC staining and measured by flow cytometry, as described in Example 1A above. Western Blot with anti-p-AKT (S473) antibody and Peggy Sue were used to determine the phosphorylation state of downstream signaling components.

The next assay concerns p-BTK. The description is as above. Format: cell-based. The conditions noted are these: idelalisib 420 nM, Compound B 320 nM. As for the experimental part: as §3
The subject of assay [1] is FSCCL^R clone 2 (PI3KCA N345K). Put plainly: CellTiter Glo viability assay after 96 h. The conditions noted are these: single agent, read-out: EC50. Format: cell-based. The procedure: (§4) Idelalisib resistance was established by continuous passaging of a clonal isolate of WSU-FSCCL in the presence of 1 μM idelalisib; clonal isolates from a passage-matched line (FSCCL^S) and idelalisib-resistant line (FSCCL^R) were generated through 2 rounds of single-cell-limiting dilution. Growth inhibition to idelalisib or other inhibitors was performed after 96 h using CellTiter Glo viability assay. Characterization of mutations and gene expression were identified by whole exome sequencing and RNA-Seq, respectively. Whole cell lysates were analyzed by western blots.
For orientation: In ATP-based viability assays light output follows the ATP content of the culture.

A further assay relates to FSCCL (WSU-FSCCL). The assay can be described thus: CellTiter Glo viability assay after 96 h. Format: cell-based. As to conditions: read-out: EC50, cell viability. As for the experimental part:
as §4

Assay [2] deals with FSCCL^R clone 1 (PI3KCA E970K). Put plainly: CellTiter Glo viability assay after 96 h. Format: cell-based. The conditions noted are these: single agent, read-out: EC50. As for the experimental part: as §4
Another assay deals with FSCCL^R. The assay can be described thus: CellTiter Glo viability assay after 96 h. The conditions noted are these: FIG. 16, read-out: EC50, cell viability. Format: cell-based. As for the experimental part:
as §4

The subject of the next assay is FSCCL^R SFK^HIGH. Put plainly: CellTiter Glo viability assay after 96 h. Format: cell-based. The procedure: as §4
Assay [3] deals with FSCCL^R clone 3 (PI3KCA P539R). The assay can be described thus: CellTiter Glo viability assay after 96 h. Format: cell-based. The conditions noted are these: single agent, read-out: EC50. As for the experimental part:
as §4

The test system of a further assay is FSCCL^S. The assay can be described thus: CellTiter Glo viability assay after 96 h. Format: cell-based. The procedure: as §4
Setting [4] is: Homo sapiens, TMD8, FIG. 2E, single agent, idelalisib 420 nM, Compound B 320 nM, time not stated, read-out: inhibition to p-ERK (T202/Y204).

The term EC50 denotes the concentration giving half of the maximal effect.

Read-outs that look alike come from different tables or passages of the source. Some results are limits rather than exact numbers.

For the compound `CC#CC(=O)N1CC[C@@H](n2c(=O)n(-c3ccc(Oc4ccccc4)cc3)c3c(N)ncnc32)C1` [Compound B, 6-amino-9-[(3R)-1-(2-butynoyl)-3-pyrrolidinyl]-7-(4-phenoxyphenyl)-7,9-dihydro-8H-purin-8-one], the inhibition at 0.32 µM in the assay on pBTK (Y223) (Homo sapiens, TMD8, FIG. 2E, single agent, Compound B 320 nM, time not stated, read-out: inhibition of p-BTK (Y223)) is 59%; with pErk1/2 (T202/Y204) (setting [4]), 48%. The “pBTK (Y223), Western Blot” value in the assay on pBTK (Y223) (2 hr, DMSO 0.36) was 0.16 normalized integrated intensity; in the assay with pBTK (Y223) (24 hr, DMSO 0.33), 0.14 normalized integrated intensity. Also, the “pErk1/2 (T202/Y204), Western Blot” value in the assay on pErk1/2 (T202/Y204) (2 hr, DMSO 1.09) is 0.47 normalized integrated intensity; in the assay with pErk1/2 (T202/Y204) (24 hr, DMSO 1.49), 0.93 normalized integrated intensity. Also, the “reduction of p-BTK in tumors” value in the assay on p-BTK (Y223) was 35%. For the same compound, in the assay on p-S6 (S235/236), the “effect on p-S6 in tumors” value was “did not have an effect”. In the assay with p-AKT S473, the “p-AKT” value is “not”. For the same compound, in the assay with p-BTK, the “p-BTK” value is “inhibited”.

As for `CCC(Nc1ncnc2[nH]cnc12)c1nc2cccc(F)c2c(=O)n1-c1ccccc1` (stereo not shown) [Idelalisib, 2-(1-((9H-Purin-6-yl)amino)propyl)-5-fluoro-3-phenylquinazolin-4(3H)-one], the “pBTK (Y223), Western Blot” value in the assay with pBTK (Y223) (2 hr, DMSO 0.36) is listed as 0.39 normalized integrated intensity; with pBTK (Y223) (24 hr, DMSO 0.33) it was 0.27 normalized integrated intensity. For the same compound, the inhibition at 0.42 µM with pErk1/2 (T202/Y204) (setting [4]) amounted to 71%. Also, the “pErk1/2 (T202/Y204), Western Blot” value in the assay on pErk1/2 (T202/Y204) (2 hr, DMSO 1.09) is 0.40 normalized integrated intensity; with pErk1/2 (T202/Y204) (24 hr, DMSO 1.49), 0.55 normalized integrated intensity. In addition, in the assay with p-AKT S473, the “p-AKT” value is “inhibited”. Moreover, in the assay with p-BTK, the “p-BTK” value is on record as “not”. The 50% effective concentration (EC50) was over 3 µM in [1]; 0.14 µM in the assay with FSCCL (WSU-FSCCL); over 3 µM in assay [2]; over 10 µM with FSCCL^R; 1.88 µM with FSCCL^R SFK^HIGH (read-out: EC50 IDELA (+Dasatinib 10 nM)); 2.27 µM with FSCCL^R SFK^HIGH (read-out: EC50 IDELA (+ENTO 680 nM)). Moreover, the EC50 in [3] was over 3 µM; in the assay on FSCCL^S (FIG. 16, read-out: EC50, cell viability), 0.1 µM; in the assay with FSCCL^S (PI3KCA WT, Table 13, single agent, read-out: EC50), 0.11 µM; in the assay with FSCCL^S (Table 14, single agent, read-out: EC50), 0.213 µM; in the assay on FSCCL^S (Table 15, single agent, read-out: EC50) it was 0.213 µM.
